# Results published in ChEMBL document CHEMBL1201862, “PubChem BioAssay data set” (2004).
# Activity calls are given as the source filed them.
# Tests used:
# [1] = biological target: T1, Estrogen receptor (Homo sapiens, UniProt P03372);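 further: potency for inhibiting coactivator peptide recruitment to the receptor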
# T1 sequence (P03372 whole entry): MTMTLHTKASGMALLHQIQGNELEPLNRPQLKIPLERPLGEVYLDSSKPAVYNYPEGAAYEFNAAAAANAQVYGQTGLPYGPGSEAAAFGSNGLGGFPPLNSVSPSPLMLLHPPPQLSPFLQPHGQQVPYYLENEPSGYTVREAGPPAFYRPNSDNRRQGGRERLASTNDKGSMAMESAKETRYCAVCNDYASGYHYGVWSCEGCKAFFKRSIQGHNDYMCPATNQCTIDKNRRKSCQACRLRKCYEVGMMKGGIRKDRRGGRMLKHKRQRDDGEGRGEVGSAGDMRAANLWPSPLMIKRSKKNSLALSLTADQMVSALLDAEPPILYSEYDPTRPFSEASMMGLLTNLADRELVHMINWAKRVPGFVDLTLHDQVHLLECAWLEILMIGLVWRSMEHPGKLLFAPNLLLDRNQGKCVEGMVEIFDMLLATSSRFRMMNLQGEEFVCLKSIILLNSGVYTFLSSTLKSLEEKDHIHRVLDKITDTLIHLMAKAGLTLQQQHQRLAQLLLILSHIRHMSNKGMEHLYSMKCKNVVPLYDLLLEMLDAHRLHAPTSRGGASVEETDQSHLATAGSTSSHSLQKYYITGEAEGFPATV
# [2] = biological target: T2, Protein skinhead-1 (Caenorhabditis elegans, UniProt P34707); format: functional
# T2 sequence (P34707 whole entry): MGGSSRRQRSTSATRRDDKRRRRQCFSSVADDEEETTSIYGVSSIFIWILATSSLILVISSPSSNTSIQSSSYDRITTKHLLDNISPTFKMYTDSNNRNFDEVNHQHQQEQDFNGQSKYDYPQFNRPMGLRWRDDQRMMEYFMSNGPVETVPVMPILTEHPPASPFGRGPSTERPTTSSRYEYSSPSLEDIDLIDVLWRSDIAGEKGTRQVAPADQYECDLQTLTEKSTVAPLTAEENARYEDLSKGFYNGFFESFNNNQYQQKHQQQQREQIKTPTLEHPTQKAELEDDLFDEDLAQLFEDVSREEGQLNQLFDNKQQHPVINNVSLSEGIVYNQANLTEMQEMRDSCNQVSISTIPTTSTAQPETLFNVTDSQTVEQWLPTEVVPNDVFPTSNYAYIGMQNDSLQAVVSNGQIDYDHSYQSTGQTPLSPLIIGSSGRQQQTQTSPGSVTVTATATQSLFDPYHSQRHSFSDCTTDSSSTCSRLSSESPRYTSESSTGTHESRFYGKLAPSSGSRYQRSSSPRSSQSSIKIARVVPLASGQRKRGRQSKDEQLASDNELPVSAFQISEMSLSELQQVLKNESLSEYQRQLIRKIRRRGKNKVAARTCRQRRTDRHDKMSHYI
# [3] = biological target: Aryl hydrocarbon receptor (Homo sapiens, UniProt P35869); experiment: Luminescence-based cell-based high throughput dose response assay for activators of the Aryl Hydrocarbon Receptor (AHR). [Related pubchem assays: 2796 (Primary screen (AHR activators in singlicate)), 2845 (Confirmation screen (AHR activators in triplicate)), 434939 (Counterscreen (PXR activators in triplicate)), 2804 (Summary (AHR activators))]; format: ADME
# Aryl hydrocarbon receptor, sequence (P35869 whole entry): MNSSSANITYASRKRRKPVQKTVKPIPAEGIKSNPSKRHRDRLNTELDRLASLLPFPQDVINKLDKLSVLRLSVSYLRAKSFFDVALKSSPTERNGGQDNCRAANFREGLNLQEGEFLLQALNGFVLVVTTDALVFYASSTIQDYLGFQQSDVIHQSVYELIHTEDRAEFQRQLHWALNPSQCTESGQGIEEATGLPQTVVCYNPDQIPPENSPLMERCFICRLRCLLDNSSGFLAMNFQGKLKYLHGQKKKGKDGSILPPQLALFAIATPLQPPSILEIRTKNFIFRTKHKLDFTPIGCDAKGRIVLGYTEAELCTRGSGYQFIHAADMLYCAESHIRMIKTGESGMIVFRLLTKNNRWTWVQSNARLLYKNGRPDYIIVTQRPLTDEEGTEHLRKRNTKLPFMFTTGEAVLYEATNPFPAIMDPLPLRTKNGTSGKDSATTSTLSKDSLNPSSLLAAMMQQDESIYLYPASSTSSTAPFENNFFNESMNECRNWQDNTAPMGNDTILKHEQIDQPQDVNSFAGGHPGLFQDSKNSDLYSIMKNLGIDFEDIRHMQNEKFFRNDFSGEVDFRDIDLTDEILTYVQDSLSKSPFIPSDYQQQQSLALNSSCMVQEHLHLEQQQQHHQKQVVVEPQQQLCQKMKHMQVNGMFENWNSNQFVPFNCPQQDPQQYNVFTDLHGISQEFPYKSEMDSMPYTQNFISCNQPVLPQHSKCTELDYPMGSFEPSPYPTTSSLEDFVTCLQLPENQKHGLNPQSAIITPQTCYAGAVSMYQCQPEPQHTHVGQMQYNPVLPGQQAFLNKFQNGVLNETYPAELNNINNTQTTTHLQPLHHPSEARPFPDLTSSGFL
# [4] = biological target: Fructose-bisphosphate aldolase (Mycobacterium tuberculosis, UniProt P9WQA3); experiment: Fluorescence-based biochemical high throughput dose response assay for inhibitors of the fructose-bisphosphate aldolase (FBA) of M. tuberculosis.; format: functional
# Fructose-bisphosphate aldolase, sequence (P9WQA3 whole entry): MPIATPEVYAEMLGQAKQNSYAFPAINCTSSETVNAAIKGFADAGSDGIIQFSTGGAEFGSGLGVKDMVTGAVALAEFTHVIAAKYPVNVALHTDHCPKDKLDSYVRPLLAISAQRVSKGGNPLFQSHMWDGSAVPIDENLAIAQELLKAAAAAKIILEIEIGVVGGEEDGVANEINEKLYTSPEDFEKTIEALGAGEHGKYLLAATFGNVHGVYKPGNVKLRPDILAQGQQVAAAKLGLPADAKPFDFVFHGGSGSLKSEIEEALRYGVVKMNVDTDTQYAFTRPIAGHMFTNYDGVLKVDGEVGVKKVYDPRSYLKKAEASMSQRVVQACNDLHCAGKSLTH
# [5] = A cytotoxicity screen of small molecule inhibitors of the PhoP region in Salmonella typhi identified in the primary screen. [Related pubchem assays: 1850, 1864, 1985 ]; format: functional
# [6] = biological target: NADPH oxidase 1 (Homo sapiens, UniProt Q9Y5S8); format: functional, cell-based;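 further: Cell-based assay with luminescence read-out, IC50 derived from inhibitor dose-response curves; intracellular ROS from endogenous NOX1 in intact HT29 colon cancer cells; potency of inhibitors that lower the ROS luminescence signal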
# NADPH oxidase 1, sequence (Q9Y5S8 whole entry): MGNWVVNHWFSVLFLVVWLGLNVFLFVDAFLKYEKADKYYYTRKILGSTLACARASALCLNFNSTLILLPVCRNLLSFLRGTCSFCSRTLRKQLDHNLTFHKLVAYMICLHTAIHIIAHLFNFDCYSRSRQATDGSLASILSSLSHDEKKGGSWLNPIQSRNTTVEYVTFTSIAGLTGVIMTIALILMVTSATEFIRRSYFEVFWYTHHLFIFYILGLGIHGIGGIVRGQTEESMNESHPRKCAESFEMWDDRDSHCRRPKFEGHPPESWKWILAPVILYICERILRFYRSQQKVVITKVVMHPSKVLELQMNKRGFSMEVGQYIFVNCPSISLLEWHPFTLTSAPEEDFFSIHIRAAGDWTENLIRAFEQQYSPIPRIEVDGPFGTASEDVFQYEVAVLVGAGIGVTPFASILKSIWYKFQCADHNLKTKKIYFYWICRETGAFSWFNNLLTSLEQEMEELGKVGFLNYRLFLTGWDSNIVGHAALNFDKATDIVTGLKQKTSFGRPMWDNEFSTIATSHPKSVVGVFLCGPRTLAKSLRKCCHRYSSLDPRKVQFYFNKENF
# [7] = biological target: Serine/threonine-protein phosphatase PP1-alpha catalytic subunit (Homo sapiens, UniProt P62136); experiment: PP1 phosphatase inhibitors, dose response, biochemical, fluorescence (AID 2394)
# Serine/threonine-protein phosphatase PP1-alpha catalytic subunit, sequence (P62136 whole entry): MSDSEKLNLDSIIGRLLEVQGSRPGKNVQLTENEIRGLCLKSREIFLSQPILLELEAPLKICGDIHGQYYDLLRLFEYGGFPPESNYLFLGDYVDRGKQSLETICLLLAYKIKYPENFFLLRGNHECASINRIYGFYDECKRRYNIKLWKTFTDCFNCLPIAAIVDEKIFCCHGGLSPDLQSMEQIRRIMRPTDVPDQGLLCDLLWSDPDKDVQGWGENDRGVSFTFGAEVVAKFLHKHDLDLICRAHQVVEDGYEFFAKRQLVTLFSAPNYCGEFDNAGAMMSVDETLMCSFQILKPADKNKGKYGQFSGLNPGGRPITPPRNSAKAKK
# [8] = biological target: Serine/threonine-protein phosphatase (Homo sapiens, UniProt Q9BPW0); experiment: PP5 phosphatase inhibitors, dose response, biochemical, fluorescence (AID 2395)
# Serine/threonine-protein phosphatase, sequence (Q9BPW0 whole entry): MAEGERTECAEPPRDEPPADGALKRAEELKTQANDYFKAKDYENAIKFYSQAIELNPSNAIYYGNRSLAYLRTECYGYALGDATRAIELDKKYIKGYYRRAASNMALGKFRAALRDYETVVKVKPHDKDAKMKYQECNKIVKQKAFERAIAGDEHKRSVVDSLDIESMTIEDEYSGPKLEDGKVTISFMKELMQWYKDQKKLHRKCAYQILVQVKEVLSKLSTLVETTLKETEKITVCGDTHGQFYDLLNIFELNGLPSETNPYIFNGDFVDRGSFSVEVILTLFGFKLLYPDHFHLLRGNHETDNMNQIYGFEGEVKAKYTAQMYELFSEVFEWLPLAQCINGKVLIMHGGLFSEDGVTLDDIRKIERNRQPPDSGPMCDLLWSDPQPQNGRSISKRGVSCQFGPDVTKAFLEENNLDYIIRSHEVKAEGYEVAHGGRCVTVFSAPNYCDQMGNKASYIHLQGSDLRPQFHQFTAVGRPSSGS
# [9] = cytotoxicity in HPDE-C7 cells, cell-based, fluorescence, HTS (AID 430); format: functional; conditions: Homo sapiens
# [10] = cytotoxicity in KRAS-transformed pancreatic duct cells, primary screen, cell-based, fluorescence, HTS (AID 431); format: functional; conditions: Homo sapiens;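 further: cell line used: HPDE-C7K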
# [11] = biological target: Luciferin 4-monooxygenase (Photinus pyralis, UniProt P08659); experiment: firefly luciferase enzyme inhibitors, dose response, biochemical, luminescence (AID 1891)
# Luciferin 4-monooxygenase, sequence (P08659 whole entry): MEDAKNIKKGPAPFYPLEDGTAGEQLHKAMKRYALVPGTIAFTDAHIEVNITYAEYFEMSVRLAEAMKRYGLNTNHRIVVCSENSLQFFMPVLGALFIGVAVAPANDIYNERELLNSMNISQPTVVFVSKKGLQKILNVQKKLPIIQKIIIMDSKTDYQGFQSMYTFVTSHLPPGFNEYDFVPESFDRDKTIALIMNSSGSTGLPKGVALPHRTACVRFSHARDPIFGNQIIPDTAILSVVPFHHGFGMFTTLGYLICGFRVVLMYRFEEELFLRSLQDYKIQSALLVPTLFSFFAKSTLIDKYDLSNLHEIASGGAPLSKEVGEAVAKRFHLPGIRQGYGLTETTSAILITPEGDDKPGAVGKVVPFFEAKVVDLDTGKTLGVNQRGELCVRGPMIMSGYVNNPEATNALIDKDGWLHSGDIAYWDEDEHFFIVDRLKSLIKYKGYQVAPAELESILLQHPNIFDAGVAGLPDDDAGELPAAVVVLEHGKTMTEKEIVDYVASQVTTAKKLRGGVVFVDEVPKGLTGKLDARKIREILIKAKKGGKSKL
# [12] = Luminescence Cell-Based Dose Confirmation HTS to Identify Inhibitors of Platelet Dense Granule Release. [Related pubchem assays: 1663 (Primary HTS), 1678 (Summary of Project)]; format: functional
# [13] = Fluorescence Cell-Based Dose Response to Identify Inhibitors of Thrombin Receptor-Activating Peptide SFLLRN-Mediated P-Selectin Induction on Platelets. [Related pubchem assays: 1663 (Primary HTS), 1889 (retest at dose ), 1891 (counterscreen), 1678 (Project Summary)]; format: functional
# [14] = M. tuberculosis H37Rv growth inhibitors, H37Rv strain (AID 1626); format: functional
# [15] = biological target: Large T antigen (Simian virus 40, UniProt P03070); format: functional, Betapolyomavirus macacae;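 further: Confirmatory-stage PubChem screen for compounds that inhibit SV40 T antigen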
# Large T antigen, sequence (P03070 whole entry): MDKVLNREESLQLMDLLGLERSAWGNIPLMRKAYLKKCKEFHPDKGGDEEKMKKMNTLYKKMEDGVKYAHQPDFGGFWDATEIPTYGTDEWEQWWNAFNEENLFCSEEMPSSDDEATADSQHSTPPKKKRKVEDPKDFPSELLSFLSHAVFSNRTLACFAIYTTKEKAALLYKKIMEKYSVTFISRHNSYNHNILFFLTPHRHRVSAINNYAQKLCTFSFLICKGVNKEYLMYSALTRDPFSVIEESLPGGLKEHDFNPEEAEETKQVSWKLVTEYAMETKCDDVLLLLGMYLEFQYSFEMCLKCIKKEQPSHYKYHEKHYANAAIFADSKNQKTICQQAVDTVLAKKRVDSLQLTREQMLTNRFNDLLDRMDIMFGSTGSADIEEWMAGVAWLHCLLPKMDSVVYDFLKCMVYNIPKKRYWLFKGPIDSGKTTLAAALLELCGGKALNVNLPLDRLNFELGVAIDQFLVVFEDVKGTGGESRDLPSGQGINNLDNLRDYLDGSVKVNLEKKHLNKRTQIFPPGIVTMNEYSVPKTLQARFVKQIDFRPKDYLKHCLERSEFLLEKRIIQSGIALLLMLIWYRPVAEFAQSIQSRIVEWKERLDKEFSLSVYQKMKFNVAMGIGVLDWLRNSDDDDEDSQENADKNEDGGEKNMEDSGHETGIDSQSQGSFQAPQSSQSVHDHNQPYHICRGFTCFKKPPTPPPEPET
# [16] = biological target: T3, Replicative DNA helicase DnaB (Mycobacterium tuberculosis, UniProt P9WMR3); experiment: DnaB intein splicing inhibitors, dose response, biochemical, cell-free fluorescence (AID 449749); format: functional
# T3 sequence (P9WMR3 whole entry): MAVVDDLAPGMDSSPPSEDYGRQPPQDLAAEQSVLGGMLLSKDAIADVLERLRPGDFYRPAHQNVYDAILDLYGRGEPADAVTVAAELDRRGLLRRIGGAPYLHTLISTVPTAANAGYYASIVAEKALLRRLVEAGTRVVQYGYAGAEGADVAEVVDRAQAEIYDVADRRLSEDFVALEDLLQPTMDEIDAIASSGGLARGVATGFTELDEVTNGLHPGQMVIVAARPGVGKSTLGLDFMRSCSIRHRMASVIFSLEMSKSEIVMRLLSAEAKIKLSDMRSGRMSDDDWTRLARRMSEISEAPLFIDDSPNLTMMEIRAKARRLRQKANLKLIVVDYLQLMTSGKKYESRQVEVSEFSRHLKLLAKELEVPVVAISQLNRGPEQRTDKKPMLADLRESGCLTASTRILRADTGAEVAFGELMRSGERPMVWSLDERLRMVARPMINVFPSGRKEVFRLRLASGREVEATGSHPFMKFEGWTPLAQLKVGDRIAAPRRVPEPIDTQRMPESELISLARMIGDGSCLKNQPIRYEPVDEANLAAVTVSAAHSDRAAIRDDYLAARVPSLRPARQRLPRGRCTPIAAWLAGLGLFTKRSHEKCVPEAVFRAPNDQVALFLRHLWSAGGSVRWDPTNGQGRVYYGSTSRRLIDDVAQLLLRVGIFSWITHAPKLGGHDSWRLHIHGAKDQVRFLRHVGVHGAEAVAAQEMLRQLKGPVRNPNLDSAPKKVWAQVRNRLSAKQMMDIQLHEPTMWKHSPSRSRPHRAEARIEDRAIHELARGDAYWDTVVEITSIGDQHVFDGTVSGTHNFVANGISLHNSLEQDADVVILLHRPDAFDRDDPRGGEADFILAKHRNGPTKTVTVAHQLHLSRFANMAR
# [17] = biological target: T4, Protein RecA (Mycobacterium tuberculosis, UniProt P9WHJ3); experiment: Fluorescence Cell-Free Homogeneous Dose Retest to Identify Inhibitors of RecA-Intein Splicing Activity. [Related pubchem assays (depositor defined):AID2097, AID2223, AID489010, AID492950]; format: functional
# T4 sequence (P9WHJ3 whole entry): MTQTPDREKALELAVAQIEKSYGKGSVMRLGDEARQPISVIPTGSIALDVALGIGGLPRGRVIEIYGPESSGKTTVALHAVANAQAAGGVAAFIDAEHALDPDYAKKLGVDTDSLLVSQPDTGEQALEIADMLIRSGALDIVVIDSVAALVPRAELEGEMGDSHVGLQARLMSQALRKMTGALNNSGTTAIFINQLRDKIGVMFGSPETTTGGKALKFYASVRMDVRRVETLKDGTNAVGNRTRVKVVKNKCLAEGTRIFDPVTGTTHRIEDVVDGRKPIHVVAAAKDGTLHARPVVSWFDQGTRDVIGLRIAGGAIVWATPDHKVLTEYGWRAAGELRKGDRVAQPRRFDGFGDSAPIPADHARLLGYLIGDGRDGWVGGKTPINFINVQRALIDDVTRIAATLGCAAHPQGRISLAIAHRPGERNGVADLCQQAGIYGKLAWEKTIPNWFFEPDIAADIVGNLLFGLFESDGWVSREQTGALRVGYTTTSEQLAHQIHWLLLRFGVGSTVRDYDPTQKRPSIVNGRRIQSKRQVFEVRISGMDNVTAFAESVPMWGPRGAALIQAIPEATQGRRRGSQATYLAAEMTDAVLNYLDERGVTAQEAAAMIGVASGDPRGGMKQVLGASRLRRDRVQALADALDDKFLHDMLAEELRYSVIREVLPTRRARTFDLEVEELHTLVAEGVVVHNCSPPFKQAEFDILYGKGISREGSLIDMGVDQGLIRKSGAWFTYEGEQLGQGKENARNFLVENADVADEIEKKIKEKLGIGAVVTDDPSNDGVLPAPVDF
# [18] = P. falciparum 3D7-ScDHODH growth inhibitors, dose response, SYBR Green, dry powder samples (AID 1159570); format: functional, cell-based;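 further: parasite growth measured after 72 hours of compound exposure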
# [19] = HepG2 cell cytotoxicity, dose response, cytotoxicity control, plate reader, dry powder samples (AID 1159569); format: functional, cell-based;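 further: inhibitor potency with signal falling toward the positive control level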
# [20] = P. falciparum Dd2 growth inhibitors, dose response, SYBR Green, dry powder samples, set 9 (AID 1159568); format: functional, cell-based
# [21] = P. falciparum Dd2 growth inhibitors, dose response, SYBR Green, cherry-picked samples (AID 1159567); format: functional, cell-based
# [22] = P. falciparum Dd2 growth inhibitors, dose response, SYBR Green, dry powder samples (AID 1159566); format: functional, cell-based;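 further: potency for growth inhibition with lower SYBR green DNA signal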
# [23] = Plasmodium falciparum Dd2 Sybr green parasite growth Measured in Cell-Based and Microorganism Combination System Using Plate Reader - 2153-01_Inhibitor_Dose_DryPowder_Activity_Set3.; format: functional
# [24] = P. falciparum ATP4 D1247Y mutant growth inhibitors, dose response, NITD609-resistant line, SYBR Green, dry powder (AID 1159571); format: functional, cell-based;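 further: parasites synchronized at ring stage by sorbitol before testing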
# [25] = biological target: Genome polyprotein (Hepatitis C virus, UniProt Q2Q167); experiment: HCV core protein dimerization inhibitors, dose response, biochemical, TR-FRET (AID 2159); set-up: species or system Hepacivirus hominis;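 further: blocks dimerization of HCV core protein measured by TR-FRET between tagged core106 pairs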
# Genome polyprotein, sequence (Q2Q167 whole entry): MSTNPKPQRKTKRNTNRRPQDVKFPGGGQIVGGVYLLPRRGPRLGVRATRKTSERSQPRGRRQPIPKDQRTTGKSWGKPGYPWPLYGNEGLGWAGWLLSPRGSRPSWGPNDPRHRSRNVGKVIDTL
# [26] = biological target: DNA dC->dU-editing enzyme APOBEC-3G (Homo sapiens, UniProt Q9HC16); experiment: Dose Response confirmation of small molecule APOBEC3G DNA Deaminase Inhibitors via a fluorescence-based single-stranded DNA deaminase assay. [Related pubchem assays (depositor defined):AID493012, AID493028]; format: functional
# DNA dC->dU-editing enzyme APOBEC-3G, sequence (Q9HC16 whole entry): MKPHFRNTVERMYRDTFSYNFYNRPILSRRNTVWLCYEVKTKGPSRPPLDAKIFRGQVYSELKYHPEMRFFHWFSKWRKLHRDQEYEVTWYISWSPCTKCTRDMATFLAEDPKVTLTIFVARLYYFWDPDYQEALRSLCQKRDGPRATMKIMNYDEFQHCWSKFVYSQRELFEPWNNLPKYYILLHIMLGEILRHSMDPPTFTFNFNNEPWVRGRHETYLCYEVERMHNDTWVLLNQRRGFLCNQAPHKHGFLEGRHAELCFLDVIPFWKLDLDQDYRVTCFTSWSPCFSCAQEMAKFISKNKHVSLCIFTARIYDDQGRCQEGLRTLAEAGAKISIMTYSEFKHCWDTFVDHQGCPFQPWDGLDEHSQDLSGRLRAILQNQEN
# [27] = HeLa 2N DNA content increase, dose response, cell-based, IC50 (AID 1117349); format: functional
# [28] = HeLa 4N DNA content increase, dose response, cell-based, IC50 (AID 1117351); format: functional
# [29] = half-maximal inhibitory concentration for glucagon-like peptide-1 release, STC-1 cell line, dose-response (AID 1117345); format: functional, cell-based
# [30] = Glucagon-like peptide 1 release potency, NCI-H716 cell line, dose-response, half-maximal inhibitory concentration (AID 1117344); format: functional, cell-based
compound,measurement,setting,value
N#Cc1c(N)oc(-c2ccc3c(c2)OCO3)c1-c1ccc2c(c1)OCO2,IC50,[1],> 50 µM (not active)
same,IC50,[2],> 100 µM (inactive)
O=C(Nc1ccon1)c1cnc2sccn2c1=O,EC50,[3],1.85 µM (active)
same,IC50,[4],4.61 µM (active)
COc1ccc(N2CCN(c3cc(C)c4ccc(O)cc4n3)CC2)cc1,EC50,[5],> 50 µM (active)
same,EC50,[3],3.47 µM (active)
Cc1ccc(S(=O)(=O)c2ccc3c(c2)Sc2ccc(Cl)cc2N3)cc1,IC50,[6],5.25 µM (active)
COC(=O)CCC(=O)OC1(C)C(=O)C=C2C=C(C3CC3)N(C3CCCC3)C=C2C1=O (stereo not given),IC50,[7],> 67 µM (not active)
same,IC50,[8],11 µM (not active)
O=S(=O)(CC(CN1CCCC1)N1CCCC1)c1ccc2ccccc2c1 (stereo not given),EC50,[9],2.04 µM (active)
same,EC50,[10],2.38 µM (active)
COc1ccc(-n2nnc3c(SCC(=O)Nc4ccc5c(c4)OCCO5)ncnc32)cc1,EC50,[9],7.96 µM (active)
same,EC50,[10],8.32 µM (active)
COC(=O)CS(=O)(=O)c1ccc2c(c1)CC(=O)N2,EC50,[11],> 112 µM (not active)
same,EC50,[12],1.45 µM (active)
same,EC50,[13],< 1 µM (active)
Oc1cnn(-c2ccccc2)c1,IC50,[14],> 100 µM (active)
same,IC50,[15],4.71 µM (active)
same,AC50,[16],12.7 µM (active)
same,EC50,[17],1.1 µM (active)
CO[C@@H]1CN(C)C(=O)c2ccc(NC(=O)Nc3ccccc3F)cc2OC[C@@H](C)N(CC2CC2)C[C@H]1C,AC50,[18],6.67 µM (active)
same,AC50,[19],> 100 µM (inactive)
same,AC50,[20],0.799 µM (active)
same,AC50,[21],0.399 µM (active)
same,AC50,[22],0.0955 µM (active)
same,AC50,[23],3.04 µM (active)
same,AC50,[24],0.961 µM (active)
C[C@@H]1CCCCO[C@H](CN(C)S(=O)(=O)c2ccc(F)cc2)[C@H](C)CN([C@@H](C)CO)C(=O)c2cc(N(C)C)ccc2O1,AC50,[20],5.44 µM (active)
CCCC(=O)Nc1ccc2c(c1)OC[C@@H](C)N(Cc1ccccc1F)C[C@@H](C)[C@H](OC)CN(C)C2=O,AC50,[18],4.01 µM (active)
same,AC50,[21],0.841 µM (active)
same,AC50,[22],0.34 µM (active)
same,AC50,[23],1.78 µM (active)
same,AC50,[24],1.33 µM (active)
Clc1ccccc1-c1nc(-c2ccccc2)c(-c2ccccc2)[nH]1,IC50,[6],> 17 µM (not active)
O=C1c2c(O)cccc2Cc2cccc(O)c21 [ANTHRALIN],IC50,[25],> 49.8 µM (not active)
same,IC50,[26],> 100 µM (inactive)
same,IC50,[27],> 10 µM (inactive)
same,IC50,[28],> 10 µM (inactive)
COc1ccc(OC(=O)N(CC(=O)O)Cc2ccc(OCCc3nc(-c4ccccc4)oc3C)cc2)cc1 [MURAGLITAZAR],IC50,[29],1.54 µM (active)
same,IC50,[30],36.2 µM (inactive)
